From patent US11077090B2, “Compounds and compositions and uses thereof” (Sunovion Pharmaceuticals Inc., priority 2016, dated 2021)

test system: compound-treated mice; assay: Neuropharmacological assay (SmartCube): behavioral activity signature and minimal effective dose; type: in vivo; conditions: Mus musculus, ip, MED = dose having 50% or more total activity, read-out: Potency: minimal effective dose (MED), binned
Summary of the method: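 Video-recorded behavior is compared algorithmically against a reference-compound database, yielding class probabilities (best dose reported). Compounds given i.p. in NMP/PEG/propylene glycol 15 min pre-test at 3 doses; potency as MED, the dose (mpk, range usually 0.3–30) reaching ≥50% total activity.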

Row | SMILES | minimal effective dose [mg/kg]
1 | CC[C@@H]1OCc2ccc(C)cc2[C@@H]1N (single isomer, unassigned) [Example 179] | < 3
2 | CC[C@H]1OCc2ccc(C)cc2[C@H]1N (single isomer, unassigned) [Example 180] | 3 to 10
3 | CC[C@@H]1OCc2ccccc2[C@@H]1N (single isomer, unassigned) [Example 191] | < 3
4 | CC[C@H]1OCc2ccccc2[C@H]1N (single isomer, unassigned) [Example 192] | < 3
5 | CC[C@H]1OCc2ccccc2[C@@H]1N (single isomer, unassigned) [Example 193] | 3 to 10
6 | CC[C@@H]1OCc2ccccc2[C@@H]1N.Cl (single isomer, unassigned) [Example 198] | < 3
7 | CC[C@H]1OCc2ccccc2[C@@H]1N.Cl (single isomer, unassigned) [Example 199] | < 3
8 | CC[C@H]1OCc2cccc(Cl)c2[C@@H]1N.Cl (single isomer, unassigned) [Example 209] | 3 to 10
9 | C[C@@H]1OCc2cc(F)ccc2[C@@H]1N.Cl (single isomer, unassigned) [Example 212] | 10 to 30
10 | C[C@H]1OCc2cc(F)ccc2[C@@H]1N.Cl (single isomer, unassigned) [Example 213] | 3 to 10
11 | CC[C@@H]1OCc2cccc(Cl)c2[C@@H]1N (single isomer, unassigned) [Example 218] | < 3

same assay, conditions: i.p. 15 min before test, most efficacious dose(s)

Row | SMILES | AD: ADHD (probability of activity signature) | AG: analgesic (probability of activity signature) | AX: anxiolytic (probability of activity signature) | CE: cognitive enhancer (probability of activity signature) | DP: anti-depressant (probability of activity signature) | MS: mood stabilizer (probability of activity signature) | PS: anti-psychotic (probability of activity signature) | SD: sedative hypnotic (probability of activity signature) | UN: uncharacterized CNS activity (probability of activity signature)
12 | CC[C@@H]1OCc2ccc(C)cc2[C@@H]1N (single isomer, unassigned) [Example 179] | + (LOQ ≤ + <5%) | + (LOQ ≤ + <5%) | ++ (5% ≤ ++ <25%) | ++ (5% ≤ ++ <25%) | +++ (25% ≤ +++ <50%) | + (LOQ ≤ + <5%) | ++ (5% ≤ ++ <25%) | + (LOQ ≤ + <5%) | ++++ (50% ≤ ++++)
13 | CC[C@H]1OCc2ccc(C)cc2[C@H]1N (single isomer, unassigned) [Example 180] | + (LOQ ≤ + <5%) | ++ (5% ≤ ++ <25%) | ++ (5% ≤ ++ <25%) | ++ (5% ≤ ++ <25%) | ++ (5% ≤ ++ <25%) | + (LOQ ≤ + <5%) | ++ (5% ≤ ++ <25%) | + (LOQ ≤ + <5%) | ++++ (50% ≤ ++++)
14 | CC[C@@H]1OCc2ccccc2[C@@H]1N (single isomer, unassigned) [Example 191] | + (LOQ ≤ + <5%) | ++ (5% ≤ ++ <25%) | ++ (5% ≤ ++ <25%) | ++ (5% ≤ ++ <25%) | ++ (5% ≤ ++ <25%) | + (LOQ ≤ + <5%) | ++ (5% ≤ ++ <25%) | ++ (5% ≤ ++ <25%) | ++++ (50% ≤ ++++)
15 | CC[C@H]1OCc2ccccc2[C@H]1N (single isomer, unassigned) [Example 192] | + (LOQ ≤ + <5%) | + (LOQ ≤ + <5%) | ++ (5% ≤ ++ <25%) | ++ (5% ≤ ++ <25%) | + (LOQ ≤ + <5%) | + (LOQ ≤ + <5%) | ++ (5% ≤ ++ <25%) | ++ (5% ≤ ++ <25%) | ++++ (50% ≤ ++++)
16 | CC[C@H]1OCc2ccccc2[C@@H]1N (single isomer, unassigned) [Example 193] | + (LOQ ≤ + <5%) | ++ (5% ≤ ++ <25%) | ++ (5% ≤ ++ <25%) | ++ (5% ≤ ++ <25%) | + (LOQ ≤ + <5%) | + (LOQ ≤ + <5%) | ++ (5% ≤ ++ <25%) | ++ (5% ≤ ++ <25%) | ++++ (50% ≤ ++++)
17 | CC[C@@H]1OCc2ccccc2[C@@H]1N.Cl (single isomer, unassigned) [Example 198] | + (LOQ ≤ + <5%) | + (LOQ ≤ + <5%) | ++ (5% ≤ ++ <25%) | ++ (5% ≤ ++ <25%) | ++ (5% ≤ ++ <25%) | + (LOQ ≤ + <5%) | +++ (25% ≤ +++ <50%) | + (LOQ ≤ + <5%) | +++ (25% ≤ +++ <50%)
18 | CC[C@H]1OCc2ccccc2[C@@H]1N.Cl (single isomer, unassigned) [Example 199] | + (LOQ ≤ + <5%) | ++ (5% ≤ ++ <25%) | ++++ (50% ≤ ++++) | ++ (5% ≤ ++ <25%) | + (LOQ ≤ + <5%) | + (LOQ ≤ + <5%) | ++ (5% ≤ ++ <25%) | ++ (5% ≤ ++ <25%) | ++++ (50% ≤ ++++)
19 | CC[C@H]1OCc2cccc(Cl)c2[C@@H]1N.Cl (single isomer, unassigned) [Example 209] | + (LOQ ≤ + <5%) | +++ (25% ≤ +++ <50%) | ++ (5% ≤ ++ <25%) | ++ (5% ≤ ++ <25%) | ++ (5% ≤ ++ <25%) | + (LOQ ≤ + <5%) | ++ (5% ≤ ++ <25%) | ++ (5% ≤ ++ <25%) | +++ (25% ≤ +++ <50%)
20 | C[C@@H]1OCc2cc(F)ccc2[C@@H]1N.Cl (single isomer, unassigned) [Example 212] | + (LOQ ≤ + <5%) | ++ (5% ≤ ++ <25%) | ++ (5% ≤ ++ <25%) | + (LOQ ≤ + <5%) | + (LOQ ≤ + <5%) | + (LOQ ≤ + <5%) | + (LOQ ≤ + <5%) | + (LOQ ≤ + <5%) | ++++ (50% ≤ ++++)
21 | C[C@H]1OCc2cc(F)ccc2[C@@H]1N.Cl (single isomer, unassigned) [Example 213] | + (LOQ ≤ + <5%) | ++ (5% ≤ ++ <25%) | ++ (5% ≤ ++ <25%) | ++ (5% ≤ ++ <25%) | ++ (5% ≤ ++ <25%) | + (LOQ ≤ + <5%) | ++ (5% ≤ ++ <25%) | + (LOQ ≤ + <5%) | +++ (25% ≤ +++ <50%)
22 | CC[C@@H]1OCc2cccc(Cl)c2[C@@H]1N (single isomer, unassigned) [Example 218] | + (LOQ ≤ + <5%) | + (LOQ ≤ + <5%) | ++ (5% ≤ ++ <25%) | ++ (5% ≤ ++ <25%) | + (LOQ ≤ + <5%) | + (LOQ ≤ + <5%) | ++ (5% ≤ ++ <25%) | + (LOQ ≤ + <5%) | ++++ (50% ≤ ++++)
